# Reference: PubChem BioAssay (NCI)
#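 Compound exposure: 48 hours, 5 concentrations, 96-well plates. GI50 marks 50% less growth. At the TGI there is no net growth.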
# Assays:
# Assay in all cases: NCI-60 cell line screen, 48 h
# NCI-H460 lung = tested on: NCI-H460 lung
# UACC-62 melanoma = tested on: UACC-62 melanoma
# SW-620 colon = tested on: SW-620 colon
# HCT-116 colon = tested on: HCT-116 colon
# OVCAR-5 ovarian = tested on: OVCAR-5 ovarian
# HCC-2998 colon = tested on: HCC-2998 colon
# NCI-H23 lung = tested on: NCI-H23 lung
# MDA-MB-435 = tested on: MDA-MB-435
# CAKI-1 renal = tested on: CAKI-1 renal
# ACHN renal = tested on: ACHN renal
SMILES,TGI (NCI-H460 lung),TGI (UACC-62 melanoma),TGI (SW-620 colon),TGI (HCT-116 colon),TGI (OVCAR-5 ovarian),TGI (HCC-2998 colon),TGI (NCI-H23 lung),TGI (MDA-MB-435),TGI (CAKI-1 renal),TGI (ACHN renal),GI50 (NCI-H460 lung),GI50 (UACC-62 melanoma),GI50 (SW-620 colon),GI50 (HCT-116 colon),GI50 (OVCAR-5 ovarian),GI50 (HCC-2998 colon),GI50 (MDA-MB-435),GI50 (CAKI-1 renal),GI50 (ACHN renal),GI50 (NCI-H23 lung)
Cn1nnnc1N/N=C/c1ccccc1,> 10 µM,> 10 µM,> 10 µM,> 10 µM,> 10 µM,> 10 µM,> 10 µM,> 10 µM,> 10 µM,> 10 µM,,,,,,,,,,
C=CC[P+](c1ccccc1)(c1ccccc1)c1ccccc1,> 100 µM,> 100 µM,> 100 µM,> 100 µM,> 100 µM,> 100 µM,,19.3 µM,> 100 µM,> 100 µM,4.54 µM,2.69 µM,5.64 µM,3.48 µM,13.4 µM,3.19 µM,2.07 µM,52.2 µM,> 100 µM,
CC(=O)c1c(C)n(C)c2c1nnc1ccccc12,> 100 µM,> 100 µM,> 100 µM,> 100 µM,,> 100 µM,> 100 µM,> 100 µM,> 100 µM,> 100 µM,,,,,,,,,,
O=C(Nc1ccc(Cl)cc1F)c1cc(I)ccc1O,14.2 µM,2.19 µM,13.6 µM,2.87 µM,> 100 µM,11.9 µM,6.59 µM,7.9 µM,5.73 µM,10.1 µM,1.5 µM,0.448 µM,2.44 µM,1.22 µM,4.21 µM,3.1 µM,2.08 µM,1.28 µM,1.81 µM,1.78 µM
C=C(C)C1CC2(C)C(C)CC(OC(=O)/C(C)=C\C)CC2C(OC(=O)/C(C)=C\C)C1O (stereo not drawn),> 100 µM,> 100 µM,> 100 µM,> 100 µM,> 100 µM,> 100 µM,> 100 µM,> 100 µM,> 100 µM,> 100 µM,,,,,,,,,,
COc1cnc2c(c1)C(=O)c1c-2n(CCCN2CCC(O)CC2)c(=O)c2cc(F)ccc12,0.221 µM,0.918 µM,2.1 µM,0.591 µM,1.6 µM,9.98 µM,1.32 µM,5.72 µM,,0.332 µM,0.0444 µM,0.24 µM,0.107 µM,0.0895 µM,0.355 µM,1.23 µM,0.382 µM,,0.0902 µM,0.292 µM
O=C(Nc1cccc(Oc2nnc(Cl)c3ccccc23)c1)Nc1ccc(Cl)c(C(F)(F)F)c1,3.44 µM,,4.9 µM,3.51 µM,4.26 µM,3.48 µM,4.36 µM,3.24 µM,6.5 µM,3.8 µM,0.898 µM,,1.92 µM,1.05 µM,1.24 µM,0.872 µM,0.791 µM,0.832 µM,0.711 µM,0.907 µM
COC1CCC(O)C(/C=C/[N+](=O)[O-])C1 (stereo not drawn),7.73 µM,19.3 µM,> 100 µM,4.58 µM,21.5 µM,3.14 µM,16.6 µM,3.67 µM,38.4 µM,29.9 µM,,,,,,,,,,
O=C(CSC(c1ccccc1)c1ccccc1)N/N=C/c1cccc(Cl)c1,34.8 µM,30.3 µM,29.2 µM,29.1 µM,33.8 µM,32.6 µM,29 µM,43.7 µM,52.5 µM,26.6 µM,17.6 µM,16 µM,15 µM,15.7 µM,17.5 µM,18.6 µM,22.5 µM,23.4 µM,13.7 µM,14.9 µM
Oc1c(CN2CCCC2)cc(COCc2ccc(Br)cc2)c2cccnc12,2.01 µM,1.72 µM,7.21 µM,3.56 µM,13.6 µM,3.61 µM,3.33 µM,14.4 µM,2.28 µM,1.97 µM,0.433 µM,0.343 µM,0.574 µM,0.365 µM,2.87 µM,0.901 µM,1.49 µM,0.106 µM,0.241 µM,0.969 µM
O=[N+]([O-])c1ccc2c(N3CCC(CCCC4CCN(c5ncnc6cc([N+](=O)[O-])ccc56)CC4)CC3)ncnc2c1,> 100 µM,> 56.9 µM,> 100 µM,97.6 µM,> 100 µM,> 100 µM,> 100 µM,> 100 µM,> 100 µM,> 100 µM,23.9 µM,> 33.4 µM,> 48 µM,0.514 µM,> 100 µM,> 87.1 µM,> 40.7 µM,5.29 µM,> 48 µM,2.29 µM
C=CC(C=O)C1(O)CCOC(=O)/C1=C\N (stereo not drawn),> 100 µM,> 100 µM,> 100 µM,> 100 µM,> 100 µM,> 100 µM,> 100 µM,> 100 µM,> 100 µM,> 100 µM,> 100 µM,> 100 µM,> 100 µM,> 100 µM,> 100 µM,> 100 µM,> 100 µM,> 100 µM,> 100 µM,52.4 µM
CNC(=O)c1ccc2cc(C3(O)CCn4cncc43)ccc2c1 (stereo not drawn),> 100 µM,> 100 µM,> 100 µM,> 100 µM,> 100 µM,> 100 µM,> 100 µM,> 100 µM,> 100 µM,> 100 µM,> 100 µM,> 100 µM,> 100 µM,> 100 µM,> 100 µM,> 100 µM,> 100 µM,> 100 µM,> 100 µM,> 100 µM
CCN1C(=O)NC(=O)C(C)(N2C(=O)c3c(F)c(F)c(F)c(F)c3C2=O)C1=O (stereo not drawn),10.6 µM,9.57 µM,3.85 µM,7.31 µM,14.8 µM,7.77 µM,17.7 µM,10.6 µM,4.86 µM,3.94 µM,4.95 µM,2.75 µM,1.82 µM,2.36 µM,3.82 µM,2.52 µM,2.96 µM,1.94 µM,2.03 µM,3.92 µM
